Laboratory results as given in ChEMBL document CHEMBL1201862, “PubChem BioAssay data set” (2004).
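Exposure lasted 48 hours, with cells grown in 96-well plates and compounds tested at five concentrations. The concentration for 50% growth inhibition is given as GI50.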 The source made the active and inactive calls. No stated cut-off is given here; in the data, active = GI50 up to about 1.1 µM and inactive = higher.

Legend:
Assay in all cases: NCI anticancer screen, dose series, 48 h
[1] = test system: A498
[2] = test system: NCI-H460
[3] = test system: SN12C
[4] = test system: A549
[5] = test system: SK-MEL-28
[6] = test system: SW-620
[7] = test system: SK-OV-3
[8] = test system: U-251
[9] = test system: HCC 2998
[10] = test system: UACC-257
[11] = test system: CCRF-CEM
[12] = test system: HOP-62
[13] = test system: MOLT-4
[14] = test system: LXFL 529
[15] = test system: K562
[16] = test system: OVCAR-4
[17] = test system: KM-20L2
[18] = test system: SNB-78
[19] = test system: HT-29
[20] = test system: UO-31
[21] = test system: NCI-H226
[22] = test system: UACC-62
[23] = test system: HCT-15
[24] = test system: DMS-114
[25] = test system: SK-MEL-5
[26] = test system: IGROV-1
[27] = test system: SF-539
[28] = test system: M14
[29] = test system: DMS-273
[30] = test system: SNB-19
[31] = test system: EKVX
[32] = test system: KM12
[33] = test system: HCT-116
[34] = test system: 786-0
[35] = test system: RXF 393
[36] = test system: LOX IMVI
[37] = test system: M19-MEL
[38] = test system: SR
[39] = test system: SK-MEL-2
[40] = test system: COLO 205
[41] = test system: DLD-1
[42] = test system: HL-60
[43] = test system: NCI-H23
[44] = test system: NCI-H522
[45] = test system: RPMI-8226
[46] = test system: OVCAR-5
[47] = test system: OVCAR-3
[48] = test system: SF-295
[49] = test system: ACHN
[50] = test system: OVCAR-8
[51] = test system: Malme-3M
[52] = test system: SNB-75
[53] = test system: XF498
[54] = test system: TK-10
[55] = test system: HOP-18
[56] = test system: CAKI-1
[57] = test system: HOP-92
[58] = test system: RXF 631
[59] = test system: SF-268

In the case of `CC[P+](C)(Cc1ccccc1)c1ccccc1` (configuration not stated), the GI50 [1] is reported as > 100 µM (inactive), the GI50 [2] is reported as > 100 µM (inactive) and the GI50 [3] is reported as > 100 µM (inactive). For the same molecule, the GI50 [4] was > 100 µM (inactive), the GI50 [5] was > 100 µM (inactive) and the GI50 [6] was > 100 µM (inactive). For the same molecule, the GI50 [7] was > 100 µM (inactive), the GI50 [8] was 59 µM (inactive) and the GI50 [9] was > 100 µM (inactive). The GI50 [10] was > 100 µM (inactive), the GI50 [11] was > 100 µM (inactive) and the GI50 [12] was > 100 µM (inactive). The GI50 [13] was > 100 µM (inactive), the GI50 [14] was 74.6 µM (inactive) and the GI50 [15] was > 100 µM (inactive). For the same molecule, the GI50 [16] was > 100 µM (inactive), the GI50 [17] was > 100 µM (inactive) and the GI50 [18] was > 100 µM (inactive). The GI50 [19] was > 100 µM (inactive), the GI50 [20] was > 100 µM (inactive) and the GI50 [21] was > 100 µM (inactive). The GI50 [22] was > 100 µM (inactive), the GI50 [23] was > 100 µM and the GI50 [24] was 87.7 µM (inactive). The GI50 [25] was 51.3 µM (inactive), the GI50 [26] was > 100 µM (inactive) and the GI50 [27] was > 100 µM (inactive). The GI50 [28] was > 100 µM (inactive), the GI50 [29] was > 100 µM (inactive) and the GI50 [30] was > 100 µM (inactive). The GI50 [31] was > 100 µM (inactive), the GI50 [32] was > 100 µM (inactive) and the GI50 [33] was > 100 µM (inactive). For the same molecule, the GI50 [34] was > 100 µM (inactive), the GI50 [35] was > 100 µM (inactive) and the GI50 [36] was > 100 µM (inactive). The GI50 [37] was 43.4 µM (inactive), the GI50 [38] was > 100 µM (inactive) and the GI50 [39] was > 100 µM (inactive). The GI50 [40] was 69.5 µM (inactive), the GI50 [41] was > 100 µM (inactive) and the GI50 [42] was 90.8 µM (inactive). For the same molecule, the GI50 [43] was > 100 µM (inactive), the GI50 [44] was 44.2 µM (inactive) and the GI50 [45] was 57.4 µM (inactive). For the same molecule, the GI50 [46] was > 100 µM (inactive), the GI50 [47] was 58.5 µM (inactive) and the GI50 [48] was > 100 µM (inactive). For the same molecule, the GI50 [49] was > 100 µM (inactive), the GI50 [50] was > 100 µM (inactive) and the GI50 [51] was 91.8 µM (inactive). The GI50 [52] was > 100 µM (inactive), the GI50 [53] was 24.7 µM (inactive) and the GI50 [54] was > 100 µM (inactive). The GI50 [55] was > 100 µM (inactive).

`COc1cc([C@@H]2Oc3cc4oc(-c5ccccc5)cc(=O)c4c(O)c3O[C@H]2OC)ccc1O` was tested, and the GI50 [1] was 14.3 µM (inactive), the GI50 [2] was 4.48 µM (inactive) and the GI50 [3] was 12.1 µM (inactive). The GI50 [56] was 19.4 µM (inactive), the GI50 [5] was 4.69 µM (inactive) and the GI50 [7] was 17.8 µM (inactive). The GI50 [9] was 13.2 µM (inactive), the GI50 [11] was 3.7 µM (inactive) and the GI50 [12] was 13.2 µM (inactive). The GI50 [13] was 4.91 µM (inactive), the GI50 [14] was 11.1 µM (inactive) and the GI50 [15] was 5.71 µM (inactive). For the same molecule, the GI50 [16] was 14.6 µM (inactive), the GI50 [18] was 18.2 µM (inactive) and the GI50 [21] was 19.3 µM (inactive). The GI50 [22] was 15 µM (inactive), the GI50 [26] was 22.4 µM (inactive) and the GI50 [27] was 15 µM (inactive). For the same molecule, the GI50 [28] was 11 µM (inactive), the GI50 [29] was 4.03 µM (inactive) and the GI50 [57] was 23.6 µM (inactive). For the same molecule, the GI50 [33] was 7.16 µM (inactive), the GI50 [34] was 8.2 µM (inactive) and the GI50 [37] was 7.4 µM (inactive). For the same molecule, the GI50 [38] was 4.14 µM (inactive), the GI50 [39] was 14.8 µM (inactive) and the GI50 [40] was 20.5 µM (inactive). The GI50 [41] was 7.69 µM (inactive), the GI50 [42] was 2.85 µM (inactive) and the GI50 [58] was 17.8 µM (inactive). For the same molecule, the GI50 [43] was 10.8 µM (inactive), the GI50 [44] was 5.97 µM (inactive) and the GI50 [59] was 6.03 µM (inactive). The GI50 [45] was 5.71 µM (inactive), the GI50 [49] was 11 µM (inactive) and the GI50 [51] was 14.3 µM (inactive). For the same molecule, the GI50 [52] was 12.4 µM (inactive).
